From patent US20190133997A1, “ARTEMISININ ANALOG, AND USE, METHOD, AND COMPOSITION FOR PROMOTING LIPID CATABOLISM AND IMPROVING SUGAR METABOLISM” (FUDAN UNIVERSITY, priority 2016, published 2019)

Experiments:
[1] = Intraperitoneal artemether, growth of healthy mice on normal diet; format: in vivo, Male C57BL/6J mice; conditions: intraperitoneal 20 mg/kg twice a week, eight weeks, vs control
Protocol: The mice were breeded in the SPF animal laboratory of the Laboratory Animal Center of Fudan University at a room temperature of 21° C.-23° C. with a 12-hour light/dark cycle. When the mice were grown to 8-week old, they were randomly divided into a control group and an administration group, with 8 mice in each group. Mice in administration group were injected intraperitoneally with artemether. Artemether for intraperitoneal injection was stored at 4° C. in coconut oil at a storage concentration of 6 mg/ml (20 mMol/L), and protected from light. Mice in administration group were injected with artemether at a dose of 20 mg/kg weight. Mice in control group were injected with 100 μl coconut oil. Administration was twice a week for eight weeks and the weight of the mice was recorded weekly.

[2] = Intraperitoneal artemether, food intake of mice on normal and high-fat diet; format: in vivo, Male C57BL/6J mice; conditions: intraperitoneal 20 mg/kg
Protocol: The mice were breeded in the SPF animal laboratory of the Laboratory Animal Center of Fudan University at a room temperature of 21° C.-23° C. with a 12-hour light/dark cycle. When the mice were grown to 8-week old, they were randomly divided into four groups, a high-fat control group, a high-fat administration group, a normal administration group, and a normal control group, with 8 mice in each group. Administration groups (high-fat and normal diet) were injected intraperitoneally with artemether. Artemether for intraperitoneal injection was stored at 4° C. in coconut oil at a storage concentration of 6 mg/ml (20 mMol/L), and protected from light. Mice in administration group were injected with artemether at a dose of 20 mg/kg weight, and mice in control group were injected with 100 μl coconut oil. The diet was weighed weekly and the diet consumption of mice in each group was recorded.

high fat-fed mice [3] = assay: Intraperitoneal artemether, serum lipid indicators in high-fat diet mice; format: in vivo, Male C57BL/6J mice; conditions: intraperitoneal 20 mg/kg twice a week, eight weeks
Protocol: (§1) The mice were breeded in the SPF animal laboratory of the Laboratory Animal Center of Fudan University at a room temperature of 21° C.-23° C. with a 12-hour light/dark cycle. […] When the mice were grown to 8-week old, they were randomly divided into a control group and an administration group, with 8 mice in each group. While the mice were fed with a high-fat diet, artemether was injected intraperitoneally. Artemether for intraperitoneal injection was stored at 4° C. in coconut oil at a storage concentration of 6 mg/ml (20 mMol/L), and protected from light. Mice in administration group were injected with artemether at a dose of 20 mg/kg weight. Administration was twice a week for eight weeks.
The mice were anesthetized with 10% chloral hydrate and blood was taken from the orbit. The whole blood was centrifuged at 300 rpm for 5 min at 4° C.
Serum was taken and the serum indicators were measured by lipid calibrator Cfas Lipid, high-density lipoprotein Cfas, and low density lipoprotein Cfas, as well as detection kits for related indicators.

[4] = system: obese mice induced by high-fat diet; assay: Intraperitoneal artemether, random blood glucose, glucose and insulin tolerance in high-fat diet obese mice; format: in vivo, Male C57BL/6J mice; conditions: intraperitoneal 20 mg/kg twice a week, eight weeks
Protocol: as §1
The mice were fasted for 12-16 hours and injected intraperitoneally with glucose injection at a dose of […]. At 0 min, 30 min, 60 min, 90 min, and 120 min after injection, blood was collected from the tail vein, and blood glucose was measured with OneTouch ExtraEasy glucometer and OneTouch ExtraEasy blood glucose test strips and the results were recorded.
Insulin was injected intraperitoneally at a dose of 0.75 U/kg weight. At 0 min, 15 min, 30 min, 45 min and 60 min after injection, blood was collected from the tail vein, and blood glucose was measured.
The mice were anesthetized with 10% chloral hydrate and blood was taken from the orbit. The whole blood was centrifuged at 300 rpm for 5 min at 4° C. Serum was taken and the blood glucose levels were measured by automatic biochemical analyzer and calibrator for blood glucose Cfas and kit (Roche).

SVF primary preadipocyte = assay: Artemether on differentiation of Stromal Vascular Fraction (SVF) primary preadipocytes (morphology, Western blot); format: cell-based, mice
Protocol: Inguinal fat of male mice was cut into pieces, treated with collagenase at 37° C. for 15 min, and centrifuged at 250 rpm for 10 min. The pellet was resuspended in F12/DMEM medium. 2.5×10^5 cells were taken and seeded in a 3.5 cm culture dish, which was pretreated with 1 ml polylysine for 30 min. Two days after cell contact inhibition (defined as Day 0 of differentiation), induction was performed according to adipocyte differentiation protocol as follows: two days after induction with F12/DMEM comprising 10% fetal bovine serum, 0.5 mMol/L Mix, 1 μMol/L Dex, 5 μg/ml insulin, and 1 μMol/L rosiglitazone; the culture was continued for 2 days with DMEM/F12 comprising 10% fetal bovine serum, […] insulin and 1 μMol/L rosiglitazone; thereafter, DMEM/F12 medium containing 10% fetal bovine serum was replaced every other day until the cells differentiated to Day 8.
On Day 0 of differentiation, SVF was treated with different concentrations of artemether ([…]), then fresh medium was replaced, and the corresponding concentration of artemether was added until the cells differentiated to mature.
The method for extracting total SVF protein was the same as 2.4.3, Western blot method and catalog number of antibody was the same as 2.4.4.

high fat-fed mice [5] = assay: Intraperitoneal artemether, cold exposure and UCP1 immunohistochemistry of subcutaneous fat in high fat-fed mice; format: in vivo, Male C57BL/6J mice; conditions: high-fat diet, intraperitoneal 20 mg/kg twice a week, eight weeks
Protocol: as §1, with “weeks. Mice were fasted and housed in a breeding box at 4° C. The rectal temperature was measured every 2 hours. The mice were sacrificed by cervical dislocation after 6 hours, and the inguinal fat was removed for histological analysis. The histological analysis including tissue fixation, paraffin embedding, sectioning and immunohistochemistry experiment of UCP1 was commissioned by Shanghai Saige Biotech Co., Ltd.” for “weeks.”

[6] = SVF, artemether 5, 10, 15 Mol/L, Western Blot

With `CO[C@H]1O[C@@H]2O[C@@]3(C)CC[C@H]4[C@H](C)CC[C@@H]([C@H]1C)[C@@]24OO3` [artemether] the “weight gain of healthy mice” value [1] was “not significantly different”, the “weight of healthy mice” value [1] was “no difference” and the “diet consumption of mice” value ([2]; high-fat groups) was “substantially the same as that of mice in control group”. For the same compound, the anorexia nervosa ([2]; normal diet and high fat diet) was “did not cause anorexia nervosa”, the “diet consumption of mice” value ([2]; normal groups) was “not different from that of mice in control group” and the Serum cholesterol (high fat-fed mice [3]) was “significantly decreased”. For the same compound, the “high-density lipoprotein (HDL) in the serum” value (high fat-fed mice [3]) was “not different from the control group”, the “serum low density lipoprotein (LDL)” value (high fat-fed mice [3]) was “significantly decreased” and the “triglyceride in the serum” value (high fat-fed mice [3]) was “not different from the control group”. For the same compound, the glucose tolerance [4] was “significantly better than that of mice in control group”, the insulin sensitivity [4] was “significantly better than that of mice in control group” and the random blood glucose [4] was “significantly lower than that of mice in control group”. For the same compound, the “expression level of PGC1α” value (SVF primary preadipocyte; [6]) was “gradually increase with the increase of artemether concentration”, the “expression level of PRDM16” value (SVF primary preadipocyte; [6]) was “gradually increase with the increase of artemether concentration” and the “expression level of UCP1” value (SVF primary preadipocyte; [6]) was “gradually increase with the increase of artemether concentration”. For the same compound, the “cell morphology of SVF primary preadipocyte” value (SVF primary preadipocyte; artemether 5, 10, 15 Mol/L during differentiation, vs standard differentiated control cells, concentration-dependent tendency) was “smaller in size, with characteristics of multi-cavity small lipid droplets”, the “body temperature in an environment of 4° C.” value (high fat-fed mice [5]) was “significantly higher than that of mice in control group” and the “UCP1 expression in subcutaneous fat (immunohistochemistry)” value (high fat-fed mice [5]; after 6 hours at 4° C.) was “exhibited significant UCP1 expression”.
